Our source for the TGI and GI50 values is PubChem BioAssay (NCI).

Assay in all cases: DTP human tumour cell line panel, 48 h
The test system of experiment [1] is HOP-18 NSCLC.
Experiment [2] concerns KM20L2 colon.
The subject of experiment [3] is RXF-631 renal.
The test system of experiment [4] is DU-145 prostate.
Experiment [5] relates to HS 578T breast.
For experiment [6], the system named is MDA-MB-231 breast.
Experiment [7] concerns NCI/ADR-RES ovarian.
Experiment [8] concerns PC-3 prostate.
Experiment [9] deals with MDA-N.

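Protocol summary: plate cells (96-well), add compound at 5 concentrations, incubate 48 h, interpolate endpoints linearly. Here, GI50 denotes the concentration required for 50% inhibition of growth. TGI is the concentration that stops growth completely.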

For the compound `COc1cc([C@@H]2c3cc4c(cc3[C@@H](NC(=O)c3ccc(OC(C)=O)cc3)C3COC(=O)[C@@H]32)OCO4)cc(OC)c1O` (stereo partly drawn), the concentration for total growth inhibition (TGI) is over 100 µM in [1], 12.7 µM in [2] and 17.3 µM in experiment [3].
In turn, `Cc1nc(-n2nc(-c3ccccc3)cc2-c2ccccc2)sc1C(/C=C/c1ccc([N+](=O)[O-])cc1)=N/NC(N)=S` registered a TGI in [2] of over 100 µM.
In the case of `O=C(NC(Cc1ccccc1)C(=O)CCl)OCc1ccccc1` (stereo not drawn), the GI50 is 10.9 µM in experiment [4]; 6.23 µM in [5]; 7.02 µM in experiment [6]; 6 µM in [7]; 6.13 µM in [8]. Also, the concentration for total growth inhibition (TGI) in experiment [4] came out at 22.9 µM; in [1] it was 24 µM; in [5] it was 36 µM; in experiment [2], 20.2 µM; in experiment [6], 20.7 µM; in experiment [7], 53.7 µM. The same compound returned a TGI in [8] of 20.3 µM.
As to `Cc1cc(C)c(C(=O)/C(=C/c2ccccc2)c2ccccc2)c(C)c1`, the TGI in [1], in experiment [2] and in experiment [3] was over 100 µM throughout.
Consider `CCCCC1N=CNc2c1ccc1c2[nH]c2ccccc21` (stereo not drawn), for which the TGI in experiment [4] came out at 5.72 µM; in experiment [1], 22.5 µM; in experiment [6], 3.3 µM; in experiment [9], 3.28 µM; in experiment [8] it was 3.23 µM; in [3], 5.97 µM.
Take `c1cnc2nc3n(c2c1)CSC3`: the TGI in experiment [2] is over 100 µM.
For `COc1cc(CC2C(=O)OCC2[C@@H](OC(C)=O)c2ccc3c(c2)OCO3)c(Br)c(OC)c1OC` (stereo partly drawn), the total growth inhibition concentration (TGI) in [1] and in [2] was over 100 µM each time.
For the compound `COC(=O)Cc1nn2c(nc1=O)sc1ccc3ccccc3c12`, the TGI in experiment [1], in experiment [2] and in [3] was over 100 µM each time.
Consider `NC(CSC1(c2ccc(Cl)cc2)c2ccccc2-c2ccccc21)C(=O)O` (stereo not drawn), for which the TGI in experiment [4] was over 100 µM; in [5], 45.6 µM; in [6], 35.7 µM; in experiment [9], over 100 µM; in experiment [7], over 100 µM; in experiment [8] it was 43.5 µM.
As to `CN(CC1NCCCC1O)C12CC3CC(CC(C3)C1)C2` (stereo not drawn), the TGI in [1] and in experiment [2] was over 100 µM in each case.
Regarding `COc1cc(CC(=O)c2cc3c(cc2-c2ccccc2)OCO3)cc(OC)c1OC`, the total growth inhibition concentration (TGI) in experiment [1] and in experiment [2] was over 100 µM each time.
For the compound `O=C1C(Cl)C(c2ccc([N+](=O)[O-])cc2)N1n1cnc2ccccc2c1=O` (stereo not drawn), the concentration for total growth inhibition (TGI) in [1] and in [2] was over 100 µM in each case.
Consider `COC(=O)c1cc2c(nc1C)-c1ccccc1OS2(=O)=O`, for which the total growth inhibition concentration (TGI) in experiment [2] and in experiment [3] was over 100 µM throughout.
On to `CN(CCCCN)c1ccc2c(=O)[nH][nH]c(=O)c2c1`, for which the TGI in [1] was over 100 µM.
Regarding `Cc1ccc(S(=O)(=O)OC2CSSCC2OS(=O)(=O)c2ccc(C)cc2)cc1` (stereo not drawn), the concentration for total growth inhibition (TGI) came to 31.1 µM in experiment [1], 30.4 µM in experiment [2] and 26.5 µM in experiment [3].
`CCCCc1c2c(nc3c1CCCC3=O)CCCC2` returned a TGI in experiment [2] of over 100 µM.
In experiment [1], `O=c1sc(-c2nc3ccccc3[nH]2)c(/N=C/c2ccccc2)n1-c1ccccc1` gave a concentration for total growth inhibition (TGI) of over 100 µM.
Turning to `COc1cc(=O)oc(/C=C/CO)c1C`, the TGI in experiment [1], in experiment [2] and in experiment [3] was over 100 µM in each case.
Regarding `NNc1ncnc2cccc(Cl)c12`, the concentration for total growth inhibition (TGI) in [4], in [5], in experiment [6], in [9], in [7] and in experiment [8] was over 100 µM in each case.
On to `Cc1cc(N(CCC#N)CCC#N)ccc1CC1N=C(c2ccccc2)OC1=O` (stereo not drawn), for which the TGI in experiment [2] and in experiment [3] was over 100 µM throughout.
`[Au+].c1c[n-]cn1.c1ccc([PH+](c2ccccc2)c2ccccc2)cc1`: the GI50 is 17.2 µM in [4]; 2.08 µM in experiment [1]; 17.1 µM in experiment [5]; 21.9 µM in experiment [2]; 3.17 µM in [9]; 32.9 µM in experiment [7]. The GI50 in [8] is 4.28 µM. In addition, the total growth inhibition concentration (TGI) is 36.5 µM in experiment [4]; 4.35 µM in experiment [1]; over 100 µM in experiment [5]; 58.3 µM in experiment [2]; 12.9 µM in [9]; over 100 µM in [7]. Also, in experiment [8], the concentration for total growth inhibition (TGI) turned out to be 17.3 µM.
As for `COc1ccc(NC(=O)C2=CC(=O)c3ccc(O)cc3C2=O)c(OC)c1`, the TGI in [1], in experiment [2] and in experiment [3] was over 100 µM each time.
Consider `O=C1NC(Cc2ccccc2)C(=O)N2CCCC12` (stereo not drawn), for which the TGI in [1] and in [2] was over 100 µM throughout.
For the compound `Cc1cc(C)c(C2=NO[C@@H]3C(=O)N(c4ccc(Cc5ccc(N6C(=O)[C@H]7C(c8c(C)cc(C)cc8C)=NO[C@H]7C6=O)cc5)cc4)C(=O)[C@H]23)c(C)c1`, the total growth inhibition concentration (TGI) in [1] and in experiment [2] was over 100 µM each time.
As to `O=C(CC1(O)C(=O)Nc2ccc([N+](=O)[O-])cc21)c1ccc(Br)cc1` (stereo not drawn), the total growth inhibition concentration (TGI) in experiment [1] and in experiment [2] was over 100 µM in each case.
Turning to `CSc1nc(SC)c2c(C)cn(C3OC(C)C(O)C(O)C3O)c2n1` (stereo not drawn), the TGI in [4], in experiment [5], in experiment [6], in experiment [9], in experiment [7] and in experiment [8] was over 100 µM in each case.
Consider `O=C(O)c1c[nH]c2c(ccc3[nH]cc(C(=O)O)c(=O)c32)c1=O`, for which the total growth inhibition concentration (TGI) in experiment [4], in [5], in experiment [6], in experiment [9], in [7] and in [8] was over 100 µM throughout.
With `N/C(=N/N=C/c1cccc(F)c1)NO`, the concentration for total growth inhibition (TGI) in experiment [1], in experiment [2] and in [3] was over 100 µM throughout.
Take `O=[P+](O)c1cccnc1`: the TGI in [2] and in experiment [3] was over 100 µM each time.
Take `c1ccc(N2N=NC3C4CC(C5c6ccccc6C45)C32)cc1` (stereo not drawn): the TGI in experiment [2] and in experiment [3] was over 100 µM each time.
With `C=C(C)C1CCC2(C(=O)O)CCC3(C)C(CCC4C5(C)CCC(O)C(C)(C)C5CCC43C)C12` (stereo not drawn), the concentration for total growth inhibition (TGI) in experiment [4] came to 27.1 µM; in experiment [5], 55.7 µM; in [6], 10.7 µM; in experiment [9], 54.9 µM; in [7], 31.5 µM; in experiment [8] it was 23.8 µM.
Regarding `C[C@H]1CCC2C(CN3CCCCC3)C(=O)OC2[C@]2(C)C(=O)CC(N3CCCCC3)C12O` (stereo partly drawn), the TGI was 48.4 µM in experiment [1] and 3.71 µM in [3].
In experiment [2], `CCOC(=O)CP(=S)(S)c1ccccc1` (stereo not drawn) came in with a total growth inhibition concentration (TGI) of over 100 µM.
On to `Cn1c2c(c3ccccc31)CCN(CCCN1CCN(c3ccccc3)CC1)C2=O`, for which the results for the total growth inhibition concentration (TGI) in experiment [1] and in experiment [2] were 32.9 µM and 25.4 µM, respectively.
On to `C1=CC(=NN=P(c2ccccc2)(c2ccccc2)c2ccccc2)C=C1`, for which the TGI in [2] was over 100 µM.
For `COC(=O)C1=Cc2cn(S(=O)(=O)c3ccc(C)cc3)c3cccc(c23)C(C=C(C)C)N1C(C)=O` (stereo not drawn), the TGI in experiment [1] and in experiment [2] was over 100 µM each time.
In the case of `C/C(CC(=O)Nc1ccc([N+](=O)[O-])cc1)=N\Nc1ccc([N+](=O)[O-])cc1[N+](=O)[O-]`, the TGI in [2] and in [3] was over 100 µM each time.
Turning to `CN1c2ccccc2S(=O)(=O)n2c(COc3ccccc3)nnc21`, the TGI in [4], in experiment [5], in experiment [6], in experiment [9], in experiment [7] and in experiment [8] was over 100 µM in each case.
`O=C(O)CCCc1cc2c(s1)-c1cccc3cccc-2c13` showed a total growth inhibition concentration (TGI) in [2] of over 100 µM.
`COc1ccc2c(c1)CC1N(C)CCC13CCCCC23` (stereo not drawn): the total growth inhibition concentration (TGI) in experiment [4], in experiment [5], in [6], in [9], in experiment [7] and in experiment [8] was over 100 µM each time.
In the case of `CC(C)OC(=O)c1cccnc1/C=N/O`, the TGI in [2] was over 100 µM.
With `O=C(O)C1C2CCC(O2)C1C(=O)NCc1cccnc1` (stereo not drawn), the concentration for total growth inhibition (TGI) in experiment [4], in experiment [5], in experiment [6], in experiment [9], in experiment [7] and in experiment [8] was over 100 µM in each case.
Consider `COC(=O)[C@H](C)[C@@H]1CC[C@](C)(CCC2=C(C)CCCC2(C)C)OO1`, for which the TGI in experiment [4], in experiment [5], in [6], in experiment [9], in experiment [7] and in [8] was over 25 µM each time.
On to `CC(C)=Cc1cc(C(=O)NCCNC(=O)c2cc(C=C(C)C)nc(NC#N)n2)nc(NC#N)n1`, for which the total growth inhibition concentration (TGI) in experiment [1] and in experiment [2] was over 100 µM in each case.
